Assay results reported in the supplement of paper PMC11061612.

Assays:
Carboplatin = compound: C1CC(C1)(C(=O)[O-])C(=O)[O-].N.N.[Pt+2] [Carboplatin]; conditions: max 10 µM
How it was run: (§1)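 Plates with 1536 wells received cancer cell lines in 7.5 μl of DMEM/F12 or RPMI containing 10% FBS. After 24 hours at 37°C and 5% CO2, cells were dosed for 72 hours with final DMSO typically 0.2%, and viability was read by CellTiter-Glo 2.0 luminescence scaled between blank-well and DMSO-well means. The single-agent IC50 was taken from a logistic fit of the dose responses made with a non-linear mixed effects model, that logistic curve having two parameters.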

AZD5363 = compound: C1CN(CCC1(C(=O)N[C@@H](CCO)C2=CC=C(C=C2)Cl)N)C3=NC=NC4=C3C=CN4 [AZD5363]; conditions: max 10 µM
How it was run: as §1

AZD1775 = compound: C=CCn1c(=O)c2cnc(Nc3ccc(N4CCN(C)CC4)cc3)nc2n1-c1cccc(C(C)(C)O)n1 [AZD1775]; conditions: max 3 µM
How it was run: as §1

Trametinib = compound: CC(=O)Nc1cccc(-n2c(=O)n(C3CC3)c(=O)c3c(Nc4ccc(I)cc4F)n(C)c(=O)c(C)c32)c1 [Trametinib]; conditions: max 1 µM
How it was run: as §1

Paclitaxel = compound: CC(=O)O[C@H]1C(=O)[C@@]2(C)[C@H]([C@H](OC(=O)c3ccccc3)[C@]3(O)C[C@H](OC(=O)[C@H](O)[C@@H](NC(=O)c4ccccc4)c4ccccc4)C(C)=C1C3(C)C)[C@]1(OC(C)=O)CO[C@@H]1C[C@@H]2O [Paclitaxel]; conditions: max 3 µM
How it was run: as §1

Palbociclib = compound: CC(=O)c1c(C)c2cnc(Nc3ccc(N4CCNCC4)cn3)nc2n(C2CCCC2)c1=O [Palbociclib]; conditions: max 10 µM
How it was run: as §1

AZD1390 = compound: CC(C)n1c(=O)n(C)c2cnc3cc(F)c(-c4ccc(OCCCN5CCCCC5)nc4)cc3c21 [AZD1390]; conditions: max 0.3 µM
How it was run: as §1

Venetoclax = compound: CC1(C)CCC(CN2CCN(c3ccc(C(=O)NS(=O)(=O)c4ccc(NCC5CCOCC5)c([N+](=O)[O-])c4)c(Oc4cnc5[nH]ccc5c4)c3)CC2)=C(c2ccc(Cl)cc2)C1 [Venetoclax]; conditions: max 1 µM
How it was run: as §1

Dasatinib = compound: CC1=C(C(=CC=C1)Cl)NC(=O)C2=CN=C(S2)NC3=CC(=NC(=N3)C)N4CCN(CC4)CCO [Dasatinib]; conditions: max 2 µM
How it was run: as §1

SG3199 = compound: CC1=CN2[C@@H](C1)C=NC3=CC(=C(C=C3C2=O)OC)OCCCCCOC4=C(C=C5C(=C4)N=C[C@@H]6CC(=CN6C5=O)C)OC [SG3199]; conditions: max 0.001 µM
How it was run: as §1

AZD2811 = compound: CCN(CCO)CCCOc1ccc2c(Nc3cc(CC(=O)Nc4cccc(F)c4)[nH]n3)ncnc2c1 [AZD2811]; conditions: max 1 µM
How it was run: as §1

SN-38 = compound: CCc1c2c(nc3ccc(O)cc13)-c1cc3c(c(=O)n1C2)COC(=O)[C@]3(O)CC [SN-38]; conditions: max 0.3 µM
How it was run: as §1

AZD0156 = compound: CN(C)CCCOc1ccc(-c2ccc3ncc4c(c3c2)n(C2CCOCC2)c(=O)n4C)cn1 [AZD0156]; conditions: max 3 µM
How it was run: as §1

AZD4320 = compound: CN(CC[C@H](CSC1=CC=CC=C1)NC2=C(C=C(C=C2)S(=O)(=O)NC(=O)C3=CC=C(C=C3)N4CCC(CC4)[C@H](C5=CC=CC=C5C6=CC=C(C=C6)Cl)O)S(=O)(=O)C(F)(F)F)CCO [AZD4320]; conditions: max 1 µM
How it was run: as §1

Alisertib = compound: COc1cc(Nc2ncc3c(n2)-c2ccc(Cl)cc2C(c2c(F)cccc2OC)=NC3)ccc1C(=O)O [Alisertib]; conditions: max 10 µM
How it was run: as §1

Etoposide = compound: COc1cc([C@@H]2c3cc4c(cc3[C@@H](O[C@@H]3O[C@@H]5CO[C@@H](C)O[C@H]5[C@H](O)[C@H]3O)[C@H]3COC(=O)[C@H]23)OCO4)cc(OC)c1O [Etoposide]; conditions: max 10 µM
How it was run: as §1

Gefitinib = compound: COc1cc2ncnc(Nc3ccc(F)c(Cl)c3)c2cc1OCCCN1CCOCC1 [Gefitinib]; conditions: max 10 µM
How it was run: as §1

Prexasertib = compound: COc1cccc(OCCCN)c1-c1cc(Nc2cnc(C#N)cn2)n[nH]1 [Prexasertib]; conditions: max 1 µM
How it was run: as §1

Doxorubicin = compound: COc1cccc2c1C(=O)c1c(O)c3c(c(O)c1C2=O)C[C@@](O)(C(=O)CO)C[C@@H]3O[C@H]1C[C@H](N)[C@H](O)[C@H](C)O1 [Doxorubicin]; conditions: max 1 µM
How it was run: as §1

AZD5153 = compound: COc1nnc2ccc(N3CCC(c4ccc(OCCN5CCN(C)C(=O)[C@H]5C)cc4)CC3)nn12 [AZD5153]; conditions: max 1 µM
How it was run: as §1

Lapatinib = compound: CS(=O)(=O)CCNCc1ccc(-c2ccc3ncnc(Nc4ccc(OCc5cccc(F)c5)c(Cl)c4)c3c2)o1 [Lapatinib]; conditions: max 10 µM
How it was run: as §1

AZD8186 = compound: C[C@@H](Nc1cc(F)cc(F)c1)c1cc(C(=O)N(C)C)cc2c(=O)cc(N3CCOCC3)oc12 [AZD8186]; conditions: max 10 µM
How it was run: as §1

Crizotinib = compound: C[C@@H](Oc1cc(-c2cnn(C3CCNCC3)c2)cnc1N)c1c(Cl)ccc(F)c1Cl [Crizotinib]; conditions: max 10 µM
How it was run: as §1

Savolitinib = compound: C[C@@H](c1ccc2nccn2c1)n1nnc2ncc(-c3cnn(C)c3)nc21 [Savolitinib]; conditions: max 1 µM
How it was run: as §1

AZD6738 = compound: C[C@@H]1COCCN1C2=NC(=NC(=C2)C3(CC3)[S@](=N)(=O)C)C4=C5C=CNC5=NC=C4 [AZD6738]; conditions: max 10 µM
How it was run: as §1

AZD5991 = compound: Cc1c2c(nn1C)CSCc1cc(n(C)n1)CSc1cc(c3ccccc3c1)OCCCc1c(C(=O)O)n(C)c3c-2c(Cl)ccc13 [AZD5991]; conditions: max 1 µM
How it was run: as §1

AZD7648 = compound: Cc1cc2ncnn2cc1Nc1ncc2c(n1)n(C1CCOCC1)c(=O)n2C [AZD7648]; conditions: max 10 µM
How it was run: as §1

Taselisib = compound: Cc1nc(-c2cn3c(n2)-c2ccc(-c4cnn(C(C)(C)C(N)=O)c4)cc2OCC3)n(C(C)C)n1 [Taselisib]; conditions: max 10 µM
How it was run: as §1

Selumetinib = compound: Cn1cnc2c(F)c(Nc3ccc(Br)cc3Cl)c(C(=O)NOCCO)cc21 [Selumetinib]; conditions: max 10 µM
How it was run: as §1

SRA737 = compound: N#Cc1cnc(Nc2cc(NC[C@H]3CNCCO3)c(C(F)(F)F)cn2)cn1 [SRA737]; conditions: max 10 µM
How it was run: as §1

MK-2206 = compound: NC1(c2ccc(-c3nc4ccn5c(=O)[nH]nc5c4cc3-c3ccccc3)cc2)CCC1 [MK-2206]; conditions: max 10 µM
How it was run: as §1

Gemcitabine = compound: Nc1ccn([C@@H]2O[C@H](CO)[C@@H](O)C2(F)F)c(=O)n1 [Gemcitabine]; conditions: max 0.3 µM
How it was run: as §1

[1] = compound: O=C(Nc1ccc2[nH]nc(-c3ccncc3)c2c1)[C@@H]1CCN(CC(=O)N2CCN(c3ccc(-c4ncccn4)cc3)CC2)C1; conditions: max 5 µM
How it was run: as §1

Olaparib = compound: O=C(c1cc(Cc2n[nH]c(=O)c3ccccc23)ccc1F)N1CCN(C(=O)C2CC2)CC1 [Olaparib]; conditions: max 10 µM
How it was run: as §1

5-Fluorouracil = compound: O=c1[nH]cc(F)c(=O)[nH]1 [5-Fluorouracil]; conditions: max 20 µM
How it was run: as §1

Row | Cell Line | IC50, cell viability 72 h (Carboplatin) | IC50, cell viability 72 h (AZD5363) | IC50, cell viability 72 h (AZD1775) | IC50, cell viability 72 h (Trametinib) | IC50, cell viability 72 h (Paclitaxel) | IC50, cell viability 72 h (Palbociclib) | IC50, cell viability 72 h (AZD1390) | IC50, cell viability 72 h (Venetoclax) | IC50, cell viability 72 h (Dasatinib) | IC50, cell viability 72 h (SG3199) | IC50, cell viability 72 h (AZD2811) | IC50, cell viability 72 h (SN-38) | IC50, cell viability 72 h (AZD0156) | IC50, cell viability 72 h (AZD4320) | IC50, cell viability 72 h (Alisertib) | IC50, cell viability 72 h (Etoposide) | IC50, cell viability 72 h (Gefitinib) | IC50, cell viability 72 h (Prexasertib) | IC50, cell viability 72 h (Doxorubicin) | IC50, cell viability 72 h (AZD5153) | IC50, cell viability 72 h (Lapatinib) | IC50, cell viability 72 h (AZD8186) | IC50, cell viability 72 h (Crizotinib) | IC50, cell viability 72 h (Savolitinib) | IC50, cell viability 72 h (AZD6738) | IC50, cell viability 72 h (AZD5991) | IC50, cell viability 72 h (AZD7648) | IC50, cell viability 72 h (Taselisib) | IC50, cell viability 72 h (Selumetinib) | IC50, cell viability 72 h (SRA737) | IC50, cell viability 72 h (MK-2206) | IC50, cell viability 72 h (Gemcitabine) | IC50, cell viability 72 h [1] | IC50, cell viability 72 h (Olaparib) | IC50, cell viability 72 h (5-Fluorouracil)
1 | EW-11 (Ewing's Sarcoma) | > 10000 nM | > 10000 nM | > 3000 nM | > 1000 nM | 35.6 nM | > 10000 nM | > 300 nM | > 1000 nM | > 2000 nM | > 1 nM | > 1000 nM | 8.46 nM | > 3000 nM | 210 nM | > 10000 nM | 4160 nM | > 10000 nM | 62.2 nM | 212 nM | > 1000 nM | > 10000 nM | > 10000 nM | 5630 nM | > 1000 nM | 5930 nM | 423 nM | > 10000 nM | 1000 nM | > 10000 nM | > 10000 nM | 6380 nM | 55.7 nM | > 5000 nM | > 10000 nM | > 20000 nM
2 | GAMG (Glioblastoma) | > 10000 nM | 8420 nM | 1690 nM | > 1000 nM | 7.35 nM | > 10000 nM | > 300 nM | > 1000 nM | 1710 nM | > 1 nM | > 1000 nM | 55.5 nM | > 3000 nM | > 1000 nM | 2460 nM | 4440 nM | > 10000 nM | 82.9 nM | 237 nM | > 1000 nM | > 10000 nM | 2980 nM | > 10000 nM | > 1000 nM | > 10000 nM | > 1000 nM | > 10000 nM | 3590 nM | > 10000 nM | > 10000 nM | > 10000 nM | 88.1 nM | > 5000 nM | > 10000 nM | > 20000 nM
3 | HH (T-Cell Non-Hodgkin's Lymphoma) | > 10000 nM | > 10000 nM | > 3000 nM | > 1000 nM | > 3000 nM | > 10000 nM | > 300 nM | > 1000 nM | > 2000 nM | > 1 nM | > 1000 nM | > 300 nM | > 3000 nM | > 1000 nM | > 10000 nM | > 10000 nM | > 10000 nM | 186 nM | > 1000 nM | > 1000 nM | > 10000 nM | > 10000 nM | > 10000 nM | > 1000 nM | > 10000 nM | 341 nM | > 10000 nM | > 10000 nM | > 10000 nM | > 10000 nM | > 10000 nM | > 300 nM | > 5000 nM | > 10000 nM | > 20000 nM
4 | HuCCT1 (Biliary Tract Carcinoma) | > 10000 nM | > 10000 nM | 583 nM | 314 nM | 294 nM | > 10000 nM | > 300 nM | > 1000 nM | 918 nM | > 1 nM | > 1000 nM | 184 nM | > 3000 nM | > 1000 nM | > 10000 nM | > 10000 nM | > 10000 nM | 35.4 nM | 710 nM | 780 nM | > 10000 nM | > 10000 nM | > 10000 nM | > 1000 nM | 4360 nM | > 1000 nM | > 10000 nM | > 10000 nM | 6720 nM | 6750 nM | > 10000 nM | > 300 nM | 1790 nM | > 10000 nM | > 20000 nM
5 | KS-1 (Glioblastoma) | > 10000 nM | > 10000 nM | > 3000 nM | 927 nM | 375 nM | > 10000 nM | > 300 nM | > 1000 nM | > 2000 nM | > 1 nM | > 1000 nM | > 300 nM | > 3000 nM | > 1000 nM | 3510 nM | > 10000 nM | > 10000 nM | 539 nM | > 1000 nM | 264 nM | > 10000 nM | > 10000 nM | > 10000 nM | > 1000 nM | > 10000 nM | > 1000 nM | > 10000 nM | 3460 nM | > 10000 nM | > 10000 nM | > 10000 nM | > 300 nM | > 5000 nM | > 10000 nM | > 20000 nM
